In patent US20250134855A1, “CO[…] AND METHODS OF USING SAME” (LYKOS THERAPEUTICS, INC., priority 2022, published 2025):
Where two headings read alike, the source gives them in different places.

Assays:
[1] = biological target: OAT3 (Homo sapiens, UniProt Q8TCC7); experiment: Transporter inhibition, OAT3
[2] = test system: human plasma proteins; conditions: literature (Wan Aasim 2017); cited from earlier work
[3] = test system: participants with PTSD of moderate or greater severity; experiment: MAPP2 Phase 3: CAPS-5 total severity score; format: in vivo, human; conditions: for Change from Baseline in CAPS-5 Total Severity Score, LS Mean for Treatment Difference / Change from Baseline in CAPS-5 Total Severity Score, LS Mean / CAPS-5 Total Severity Score, Mean / CAPS-5 Total Severity Score, Median / Change from Baseline in CAPS-5 Total Severity Score, Mean / Change from Baseline in CAPS-5 Total Severity Score, Median / Loss of Diagnosis, % / Non-Responder, % / Remission, % / Responder (10-point reduction in CAPS-5 Total Severity Score), %: MAPP2, mITT; for Change from Baseline in CAPS-5 Total Severity Score, LS Mean for Treatment Difference: vs placebo; for Change from Baseline in CAPS-5 Total Severity Score, LS Mean / CAPS-5 Total Severity Score, Mean / CAPS-5 Total Severity Score, Median / Change from Baseline in CAPS-5 Total Severity Score, Mean / Change from Baseline in CAPS-5 Total Severity Score, Median: de jure
Text: FIG. 36 and FIG. 37 show the time course of improvement in Clinician Administered PTSD Scale for DSM-5 (CAPS-5) total severity score versus placebo. Each show a treatment difference between MDMA and placebo after 3 medication sessions with psychological intervention. […] Between the second and third treatment sessions, the difference between the groups appeared to continue to increase in both studies. The primary efficacy measure was change from baseline in the CAPS-5 total severity score at 18 weeks, which was evaluated 2 months after the final dosing session. The CAPS-5 is a 30-item, clinician-rated scale used to assess severity of PTSD symptoms and diagnostic status according to DSM-5 criteria, as described herein. Scores on the CAPS 5 range from 0 to 80, with higher scores indicating more severe PTSD symptoms. In both studies, a secondary efficacy measure was change from baseline in Sheehan Disability Scale (SDS) mean item scores at 18 weeks. The modified SDS is a 3-item, clinician-rated scale measuring the degree of functional impairment in work, family, and social life. Scores on the SDS mean items range from 0 to 10, with higher scores indicating more functional impairment. In these studies, the efficacy assessments were administered by blinded independent raters 18 to 30 days after medication sessions 1 and 2.
(§1) MAPP2 was a Phase 3 randomized, placebo-controlled, 2-arm, double-blind, multi-site study conducted to investigate the efficacy and safety of MDMA-AT in participants with PTSD of moderate or greater severity. This study included 3 experimental sessions of therapy combined with either MDMA or placebo. During Experimental Session 1, participants received a split dose of 120 mg (80 mg+40 mg). Participants received an escalated split dose of 180 mg during Experimental Sessions 2 and 3 unless there were tolerability issues or the participant declined.
The primary outcome measure, the CAPS-5, evaluated changes in PTSD symptom severity and the secondary outcome measure, the SDS, evaluated changes in functional impairment. Both measures were assessed by a blinded centralized language-specific IR pool.
A de jure estimand of treatment efficacy was used to estimate the causal effect of MDMA-AT on PTSD symptom severity as measured by the change from Baseline to Visit 19 in CAPS-5 total severity scores in the mITT analysis set. […] Differences in treatment effect among demographic, dissociative sub-type, and overnight stay subgroups were not observed.

[4] = cited from earlier work
[5] = test system: participants with PTSD of moderate or greater severity; experiment: MAPP2 Phase 3: safety, adverse events; format: in vivo, human
Protocol: as §1
Overall, 102 (98.1%) participants reported at least 1 TEAE during the study period (Table 52riod (Table 52riod (Table 52). Of these, 2 (3.9%) participants from the placebo group were discontinued due to TEAE (abdominal pain and suicidal ideation). There were no serious TEAEs or deaths reported during the study. Adverse events of special interest included a subset of AEs involving cardiac function, suicidality, and MDMA abuse. There were 6 (11.3%) participants in the MDMA group and 3 (5.9%) participants in the placebo group with an TEAE of special interest. AESIs related to suicidality were reported in 2 MDMA participants and 2 placebo participants. AESIs related to cardiac function were reported in 4 MDMA participants and 1 placebo participant (all palpitations). […] A listing of all TEAEs from MDMA-AT group with ≥5% incidence and twice the prevalence of placebo group is provided below in Table 44 Table 44 Table 44.

[6] = Baseline to Primary Outcome T4 (Visit 19)
[7] = Primary Outcome CAPS-5 T4 (Visit 19)

OAT3, sequence (Q8TCC7 whole entry): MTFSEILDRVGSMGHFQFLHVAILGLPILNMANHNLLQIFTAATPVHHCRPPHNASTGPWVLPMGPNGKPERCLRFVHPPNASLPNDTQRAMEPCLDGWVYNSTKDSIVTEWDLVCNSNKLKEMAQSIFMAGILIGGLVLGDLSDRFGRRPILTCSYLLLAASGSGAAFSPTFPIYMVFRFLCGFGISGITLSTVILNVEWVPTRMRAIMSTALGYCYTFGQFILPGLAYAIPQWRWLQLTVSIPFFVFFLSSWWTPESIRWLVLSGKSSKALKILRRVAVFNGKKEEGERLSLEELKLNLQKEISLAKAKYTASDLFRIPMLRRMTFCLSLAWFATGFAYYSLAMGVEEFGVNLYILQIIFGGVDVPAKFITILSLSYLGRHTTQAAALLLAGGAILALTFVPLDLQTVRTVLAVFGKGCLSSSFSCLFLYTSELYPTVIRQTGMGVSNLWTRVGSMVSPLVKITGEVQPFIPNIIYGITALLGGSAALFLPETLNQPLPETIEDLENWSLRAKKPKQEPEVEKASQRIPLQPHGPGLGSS

For CNC(C)Cc1ccc2c(c1)OCO2 (stereo not shown) [MDMA, 3,4-methylenedioxymethamphetamine], the “inhibition of OAT3” value [1] is given as “not an inhibitor”, the “bound to plasma proteins in humans” value [2] is given as 51% and the “onset of treatment efficacy (CAPS-5 versus placebo)” value ([3]; FIG. 36 and FIG. 37, both studies) is given as “after the second session”. The “Change from Baseline in CAPS-5 Total Severity Score, LS Mean for Treatment Difference” value (“Change from Baseline … for Treatment Difference” for short) ([3]; MMRM, T2 (Visit 8)) was −4.14, the “Change from Baseline … for Treatment Difference” value ([3]; MMRM, T3 (Visit 13)) was −7.98 and the “Change from Baseline … for Treatment Difference” value ([3]; MMRM, T4 (Visit 19)) was −8.91. For the same compound, the “Change from Baseline in CAPS-5 Total Severity Score, LS Mean” value ([3]; MMRM, Baseline to Primary Outcome T4 (Visit 19)) was −23.69, the “Change from Baseline in CAPS-5 Total Severity Score, LS Mean” value ([3]; MMRM, Baseline to T2 (Visit 8)) was −11.36 and the “Change from Baseline in CAPS-5 Total Severity Score, LS Mean” value ([3]; MMRM, Baseline to T3 (Visit 13)) was −18.58. The “CAPS-5 Total Severity Score, Mean” value ([3]; Baseline CAPS-5 T1 (Visit 3)) was 39.4, the “CAPS-5 Total Severity Score, Median” value ([3]; Baseline CAPS-5 T1 (Visit 3)) was 39.0 and the “Change from Baseline in CAPS-5 Total Severity Score, Mean” value [3, 6] was −23.5. For the same compound, the “Change from Baseline in CAPS-5 Total Severity Score, Median” value (“Change from Baseline … Median” below) [3, 6] was −25.0, the “Change from Baseline in CAPS-5 Total Severity Score, Mean” value ([3]; Baseline to T2 (Visit 8)) was −11.3 and the “Change from Baseline … Median” value ([3]; Baseline to T2 (Visit 8)) was −12.0. The “Change from Baseline in CAPS-5 Total Severity Score, Mean” value ([3]; Baseline to T3 (Visit 13)) was −18.5, the “Change from Baseline … Median” value ([3]; Baseline to T3 (Visit 13)) was −20.0 and the “CAPS-5 Total Severity Score, Mean” value ([3]; CAPS-5 T2 (Visit 8)) was 28.1. The “CAPS-5 Total Severity Score, Median” value ([3]; CAPS-5 T2 (Visit 8)) was 30.0, the “CAPS-5 Total Severity Score, Mean” value ([3]; CAPS-5 T3 (Visit 13)) was 20.9 and the “CAPS-5 Total Severity Score, Median” value ([3]; CAPS-5 T3 (Visit 13)) was 19.0. The “CAPS-5 Total Severity Score, Mean” value [3, 7] was 15.8, the “CAPS-5 Total Severity Score, Median” value [3, 7] was 15.5 and the “Loss of Diagnosis, %” value ([3]; CAPS-5 T2 (Visit 8)) was “(39.6) %”. The “Non-Responder, %” value ([3]; CAPS-5 T2 (Visit 8)) was “(47.2) %”, the “Remission, %” value ([3]; CAPS-5 T2 (Visit 8)) was “(9.4) %” and the “Responder (10-point reduction in CAPS-5 Total Severity Score), %” value ([3]; CAPS-5 T2 (Visit 8)) was “(52.8) %”. For the same compound, the “Loss of Diagnosis, %” value ([3]; CAPS-5 T3 (Visit 13)) was “(60.4) %”, the “Non-Responder, %” value ([3]; CAPS-5 T3 (Visit 13)) was “(22.6) %” and the “Remission, %” value ([3]; CAPS-5 T3 (Visit 13)) was “(26.4) %”. For the same compound, the “Responder (10-point reduction in CAPS-5 Total Severity Score), %” value ([3]; CAPS-5 T3 (Visit 13)) was “(77.4) %”, the “Loss of Diagnosis, %” value [3, 7] was “(71.2) %” and the “Non-Responder, %” value [3, 7] was “(13.5) %”. For the same compound, the “Remission, %” value [3, 7] was “(46.2) %”, the “Responder (10-point reduction in CAPS-5 Total Severity Score), %” value [3, 7] was “(86.5) %” and the “change from Baseline to Visit 19 in CAPS-5 total severity scores” value ([3]; MAPP2, MMRM, de jure estimand, mITT) was −23.69. The “no longer met PTSD diagnostic criteria” value ([3]; MAPP2, Visit 19) was 71.2%, the “remission (CAPS-5 ≤11 and no longer meeting PTSD diagnostic criteria)” value ([3]; MAPP2, Visit 19) was 46.2% and the “responders (10-point reduction in CAPS-5 total severity score)” value ([3]; MAPP2, Visit 19) was 86.5%. The “unchanged MDMA excreted in urine” value ([4]; oral 1.0 mg/kg MDMA) was 8%, the “unchanged MDMA excreted in urine” value ([4]; oral 1.6 mg/kg MDMA) was 11% and the “AESIs of MDMA abuse” value ([5]; MAPP2) was “no AESIs of MDMA abuse”. The “TEAE Abdominal pain upper, %” value ([5]; MAPP2) was “(9.4) %”, the “TEAE Bruxism, %” value ([5]; MAPP2) was “(13.2) %” and the “TEAE Chest discomfort, %” value ([5]; MAPP2) was “(17.0) %”. For the same compound, the “TEAE Chills, %” value ([5]; MAPP2) was “(15.1) %”, the “TEAE Decreased appetite, %” value ([5]; MAPP2) was “(35.8) %” and the “TEAE Dissociation, %” value ([5]; MAPP2) was “(5.7) %”. For the same compound, the “TEAE Dry mouth, %” value ([5]; MAPP2) was “(17.0) %”, the “TEAE Feeling abnormal, %” value ([5]; MAPP2) was “(9.4) %” and the “TEAE Feeling cold, %” value ([5]; MAPP2) was “(20.8) %”. The “TEAE Feeling hot, %” value ([5]; MAPP2) was “(26.4) %”, the “TEAE Feeling jittery, %” value ([5]; MAPP2) was “(15.1) %” and the “TEAE Feeling of body temperature change, %” value ([5]; MAPP2) was “(9.4) %”. For the same compound, the “TEAE Flushing, %” value ([5]; MAPP2) was “(5.7) %”, the “TEAE Gait disturbance, %” value ([5]; MAPP2) was “(5.7) %” and the “TEAE Heart rate increased, %” value ([5]; MAPP2) was “(5.7) %”. For the same compound, the “TEAE Hyperhidrosis, %” value ([5]; MAPP2) was “(34.0) %”, the “TEAE Hypoaesthesia, %” value ([5]; MAPP2) was “(9.4) %” and the “TEAE Muscle spasms, %” value ([5]; MAPP2) was “(7.5) %”. The “TEAE Muscle tightness, %” value ([5]; MAPP2) was “(58.8) %”, the “TEAE Mydriasis, %” value ([5]; MAPP2) was “(11.3) %” and the “TEAE Nausea, %” value ([5]; MAPP2) was “(45.3) %”. For the same compound, the “TEAE Nystagmus, %” value ([5]; MAPP2) was “(13.2) %”, the “TEAE Palpitations, %” value ([5]; MAPP2) was “(9.4) %” and the “TEAE Panic attack, %” value ([5]; MAPP2) was “(5.7) %”. The “TEAE Paraesthesia, %” value ([5]; MAPP2) was “(18.9) %”, the “TEAE Restlessness, %” value ([5]; MAPP2) was “(15.1) %” and the “TEAE Thirst, %” value ([5]; MAPP2) was “(7.5) %”. The “TEAE Tremor, %” value ([5]; MAPP2) was “(11.3) %”, the “TEAE Vision blurred, %” value ([5]; MAPP2) was “(15.1) %” and the “TEAE Visual impairment, %” value ([5]; MAPP2) was “(5.7) %”. For the same compound, the “participants with an TEAE of special interest” value ([5]; MAPP2) was 11.3%, the “At least one TEAE of Special Interest, %” value ([5]; MAPP2, Safety Set) was “(11.3) %” and the “At least one Treatment-emergent SAE Leading to Death, %” value ([5]; MAPP2, Safety Set) was “(0.0) %”. For the same compound, the “At least one Treatment-emergent SAE, %” value ([5]; MAPP2, Safety Set) was “(0.0) %”, the “Discontinued study treatment due to any TEAE(s), %” value ([5]; MAPP2, Safety Set) was “(0.0) %” and the “Participants with at least 1 TEAE during Experimental Sessions and 2 Days Following, %” value ([5]; MAPP2, Safety Set) was “(100.0) %”. The “Subjects with at least 1 Severe TEAE, %” value ([5]; MAPP2, Safety Set) was “(9.4) %”, the “Subjects with at least 1 TEAE, %” value ([5]; MAPP2, Safety Set) was “(100.0) %” and the “heart rate and blood pressure during experimental sessions” value ([5]; MAPP2, dose-dependent, no clinical intervention required) was “transient increases”. For the same compound, the “participants with at least 1 temporally related TEAE” value ([5]; MAPP2, during an experiment session or up to 2 days following) was “All participants”.
